Results reported in paper PMC7788351 (The Journal of Pharmacology and Experimental Therapeutics, 2021).
Where a name gives a salt, the structure may show the parent alone.

How the values were obtained:
male Sprague-Dawley rats = assay: In vivo biotelemetry; details: s.c., amphetamine 0.1–3 mg/kg, PEA analogs 1–10 mg/kg
humans [1] = details: ref Chait et al., 1985; cited from earlier work
5-HT1A = target: T1, 5-HT1A (Homo sapiens, UniProt P08908); details: ref Schindler et al., 2019; cited from earlier work
T1 sequence (P08908 1-422): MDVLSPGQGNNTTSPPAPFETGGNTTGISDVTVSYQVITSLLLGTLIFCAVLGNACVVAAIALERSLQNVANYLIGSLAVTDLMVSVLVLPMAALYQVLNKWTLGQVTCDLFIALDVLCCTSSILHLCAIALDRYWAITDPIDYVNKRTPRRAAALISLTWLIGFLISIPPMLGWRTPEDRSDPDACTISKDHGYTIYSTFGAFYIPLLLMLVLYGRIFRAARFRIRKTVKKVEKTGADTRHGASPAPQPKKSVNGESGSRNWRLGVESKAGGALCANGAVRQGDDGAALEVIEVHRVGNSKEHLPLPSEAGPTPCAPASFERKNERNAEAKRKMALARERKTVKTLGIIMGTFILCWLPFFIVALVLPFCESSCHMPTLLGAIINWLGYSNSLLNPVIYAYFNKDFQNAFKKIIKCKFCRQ

α2A = target: T2, α2A (Homo sapiens, UniProt P08913); details: ref Schindler et al., 2019; cited from earlier work
T2 sequence (P08913 1-465): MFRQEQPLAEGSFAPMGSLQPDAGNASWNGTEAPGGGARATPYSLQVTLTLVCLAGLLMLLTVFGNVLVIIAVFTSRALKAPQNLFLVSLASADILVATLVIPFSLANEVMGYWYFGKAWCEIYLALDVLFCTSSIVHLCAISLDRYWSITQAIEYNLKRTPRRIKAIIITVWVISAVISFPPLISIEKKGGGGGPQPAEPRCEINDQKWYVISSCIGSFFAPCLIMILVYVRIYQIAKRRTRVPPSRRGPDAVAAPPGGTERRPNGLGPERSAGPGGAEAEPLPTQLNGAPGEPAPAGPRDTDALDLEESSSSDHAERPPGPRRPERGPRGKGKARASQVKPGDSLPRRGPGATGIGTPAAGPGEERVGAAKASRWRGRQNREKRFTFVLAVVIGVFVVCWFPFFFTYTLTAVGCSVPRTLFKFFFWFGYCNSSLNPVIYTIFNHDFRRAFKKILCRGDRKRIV

humans [2] = details: ref Brauer and de Wit, 1996, Kelly et al., 2006, Harvanko et al., 2016; cited from earlier work
α2C = target: T3, α2C (Homo sapiens, UniProt P18825); details: ref Schindler et al., 2019; cited from earlier work
T3 sequence (P18825 1-462): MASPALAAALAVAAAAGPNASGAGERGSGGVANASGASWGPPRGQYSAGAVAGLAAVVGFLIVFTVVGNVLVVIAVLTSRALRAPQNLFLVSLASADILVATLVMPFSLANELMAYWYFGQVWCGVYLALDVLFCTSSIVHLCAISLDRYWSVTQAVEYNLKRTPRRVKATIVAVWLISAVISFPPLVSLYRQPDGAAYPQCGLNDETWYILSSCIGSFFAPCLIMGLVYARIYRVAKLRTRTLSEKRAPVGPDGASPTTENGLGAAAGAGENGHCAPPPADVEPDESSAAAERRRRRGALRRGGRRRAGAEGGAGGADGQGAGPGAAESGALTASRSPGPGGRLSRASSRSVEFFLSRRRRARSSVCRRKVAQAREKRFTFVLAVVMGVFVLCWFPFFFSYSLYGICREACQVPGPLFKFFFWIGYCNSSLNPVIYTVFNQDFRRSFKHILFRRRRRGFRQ

5-HT2B = 5-HT2B (Homo sapiens, UniProt P41595); details: ref Schindler et al., 2019; cited from earlier work
5-HT2B, sequence (P41595 whole entry): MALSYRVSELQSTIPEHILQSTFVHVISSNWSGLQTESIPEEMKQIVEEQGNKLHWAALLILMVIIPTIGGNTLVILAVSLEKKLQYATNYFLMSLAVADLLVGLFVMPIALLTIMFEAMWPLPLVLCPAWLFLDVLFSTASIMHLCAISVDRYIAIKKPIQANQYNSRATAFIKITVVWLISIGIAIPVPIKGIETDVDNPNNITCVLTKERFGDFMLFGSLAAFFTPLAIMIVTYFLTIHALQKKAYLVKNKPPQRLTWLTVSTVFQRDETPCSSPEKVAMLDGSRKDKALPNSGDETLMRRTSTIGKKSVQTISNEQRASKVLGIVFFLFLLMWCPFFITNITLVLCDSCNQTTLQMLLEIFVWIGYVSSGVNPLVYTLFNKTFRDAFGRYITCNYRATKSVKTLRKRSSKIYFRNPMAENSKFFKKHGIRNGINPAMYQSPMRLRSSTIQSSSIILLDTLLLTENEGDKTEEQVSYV

rats = details: ref Schindler et al., 2019, cited from earlier work

SMILES | effect on core body temperature (male Sprague-Dawley rats) | threshold oral dose that can be discriminated (humans [1]) | Ki (5-HT1A) | Ki (α2A) | lowest oral doses that increase BP and HR (humans [2]) | Ki (α2C) | Ki (5-HT2B) | effect on HR or activity (rats; at the doses tested) | reduction of potency to increase BP compared with amphetamine (rats)
C[C@H](N)Cc1ccccc1 [Amphetamine, (S)-amphetamine sulfate] | did not significantly affect body temperature | 5 mg | 2630 nM | 420 nM | 7.5 to 10 mg | 171 nM | 971 nM |  | 
CC(CN)c1ccccc1 (stereo not drawn) [BMPEA, β-methylphenethylamine] |  |  |  |  |  |  |  | did not increase HR or activity | about 30 fold
